Data from patent US20140194506A1, “Use of Potassium Piperonyl Pentadienoate for Lowering Blood Lipid” (INNER MONGOLIA UNIVERSITY, priority 2011, published 2014).
Where “and” joins values, the source holds several entries; their conditions need not be identical. Equal entries are not always repeated.

Tests used:
[1] = system: high lipid mode white rats; assay: Therapeutic blood lipid lowering in hyperlipoidemia mode white rats (Example 3); type: in vivo, Wistar male white rats
From the text: High lipid feed formula: cholesterol 3%, lard 10%, sodium cholate 0.5%, basal feed: 86.5% (formula: flour 17.14%, rice flour 8.57%, maize 17.14%, bran 21%, fish flour 1.71%, dairy salt 0.857%, vitamin 0.085%, bean material 17.14%).
72 Wistar white male rats of 170±10 g of body weight were divided into 6 groups randomly and numbered. Each group included 12 rats. The rats were fed with common standard feed under experimental conditions and observed for 7 days, and its blood was sampled from tail for testing serum total cholesterol (TC). […] From the 8th day, the group I was set as a blank group, and was fed with common standard feed. Other groups were fed with high lipid feed for 8 days in a row, and the blood was sampled from tail on the next day for testing TC. […] The rats then were divided into 5 groups randomly (see table 12) according to TC levels. Each group included 10 rats (10 rats who were unsuccessful blood lipid modes were discarded). The rats were ted with high lipid teed continuously. Group was a high lipid feed mode control group. Group III was a Simvastatin 10 mg/kg group. Group IV was a GB-O group. Group V was a GB-H group. Group VI was a GB-K group. The high lipid feed mode control group was fed with high lipid feed together with distilled water. Groups III, IV, V, and VI were fed with high lipid feed together with required simvastatin, GB-O, GB-H, and GB-K suspensions (formulated by grinding with 0.5% sodium carboxymethycellulose CMC-Na) respectively. The dosing amount was 0.046 mmol/kg, and the amount of high lipid feed was 20 g per day for each rat. The grouping and the dosing amount for each group can be found in table 13.
(§1) The body weights of white rats were determined and recorded every day. The rats for each group were dosed basing, on its body weight by feeding for 14 days at 22° C. of room temperature and 40-50% of relative humidity. On the 14th day, after fasting and freely receiving water for 16 hours, the blood was sampled from aorta, placed for 30 min to blood coagulate, centrifugated for 15 min at 3000 r/min to separate serum. The values of serum total cholesterol (TC), and triglyceride (TG) were determined on an automatic analyzer using enzymatic colorimetry, the value of high density lipoprotein cholesterol (HDL) was determined using a phosphotungstic acid-Mg precipitation method, and the value of low density lipoprotein cholesterol (LDL) was determined using a polyvinyl sulfate precipitation method.
(§2) All data were treated statistically, and are presented as means standard deviations (x±s). The significance of difference was judged by T test. The calculation of p value was obtained by comparing the high lipid mode group with the blank control group, and comparing other test drug groups with the high lipid mode group.
The reaction temperature was 37° C. The cholesterol ester in serum was first hydrolyzed into free cholesterol (FC) and fatty acid with cholesterol ester hydrolase (CEH.) Then, all FC in serum was oxidized into ch-4-en-3-one and H2O2) with cholesterol oxidase (COD). The resulting H2O2, was reacted with 4-aminoantipyrine (4-AAP) and 4-chlorophenol in the presence of peroxidase (POD) (Trinder reaction), to yield red quinine imine, which was colarimetrically tested at 500 nm wavelength.
The reaction temperature was 37° C. The triglyceride in serum was first hydrolyzed into glycerol and fatty acid with lipoprotein lipase (LPL). The resulting glycerol was reacted with ATP in the presence of glycerol kinase (GK), to produce glycerol-3-phosphate and ADP. The resulting glycerol-3-phosphate was oxidized into dihydroxyacetone phosphate and H2O2 with oxygen in the presence of glycerol phosphate oxidase (GPO). […]

[2] = system: high lipid mode white rats; assay: Prophylactic blood lipid lowering in high lipid feed white rats (Example 2); type: in vivo, Wistar male white rats
From the text: High lipid feed formula: cholesterol 3%, lard 10%, sodium cholate 0.5%, basal feed: […] (formula: flour 17.14%, rice flour 8.57%, maize […], bran 21%, fish flour 1.71%, dairy salt 0.857%, vitamin 0.085%, bean material 17.14%).
60 Wistar White male rats of 150±10 g of body weight were fed with common standard feed for 5 days, and then divided into 6 groups randomly. Each group included 10 rats. Group I was a blank group, where the rats were fed with common standard feed. Group II was a high lipid feed mode control group. Group III was a Simvastatin 10 mg/kg group. Group IV was a GB-O group. Group V was a GB-H group. Group VI was a GB-K group. High lipid feed mode control group were fed with high lipid feed together with distilled water. Groups III, IV, V, and VI were fed with high lipid feed together with required simvastatin, GB-O, GB-H, and GB-K suspensions (formulated by grinding with 0.5% sodium […] CMC-Na) respectively. The dosing amount was 0.046 mmol/kg, and the amount of high lipid feed was 20 g per day for each rat. The grouping and the dosing amount for each group can be found in table 1.
as §1, with “The rats in each group” for “The rats for each group”, “were dosed basing on its” for “were dosed basing, on its”, “16 hours, its blood was” for “16 hours, the blood was”, “blood coagulate, and centrifugated for” for “blood coagulate, centrifugated for”, “determined using the polyvinyl sulfate” for “determined using a polyvinyl sulfate”
as §2, with “were” for “are”, “means±standard” for “means standard”
The reaction temperature was 37° C. The cholesterol ester in serum was first hydrolyzed into free cholesterol (FC) and fatty acid with cholesterol ester hydrolase (CEH). Then, all FC in serum was oxidized into ch-4-en-3-one and H2O2 with cholesterol oxidase (COD). The resulting H2O2 was reacted with 4-aminoantipyrine (4-AAP) and 4-chlorophenol in the presence of peroxidase (POD) (Trinder reaction), to yield red quinine imine, which was calorimetrically tested at a 500 nm wavelength.
The reaction temperature was 37° C. The triglyceride ire serum was first hydrolyzed into glycerol and fatty acid with lipoprotein lipase (LPL). The resulting glycerol was reacted with ATP in the presence of glycerol kinase (GK), to produce glycerol-3-phosphate and ADP. The resulting glycerol-3-phosphate was oxidized into dihydroxyacetone phosphate and H2O2 with oxygen in the presence of glycerol phosphate oxidase (GPO). The resulting H2O2 was reacted with 4-aminoantipyrine (4-AAP) and 4-chlorophenol in the presence of peroxidase (POD) (Trinder reaction), to yield red quinine imine, which was colorimetrically determined at a 500 nm wavelength.
The LDL in serum was precipitated using PVS. The serum TC and the Ch in the resulting supernatant were determined using the enzymatic methods described hereinabove, and the LDL-C was calculated by subtracting the Ch from the serum TC. The polyethylene glycol monoether (PEGME) was added in a suitable amount in order to facilitate the precipitation of LDL. […]

[3] = group mean n=10, 15th day after administration
[4] = rats No. 1-10, 0.046 mmol/kg (Simvastatin 10 mg/kg), 15th day after administration

`CCC(C)(C)C(=O)O[C@H]1C[C@@H](C)C=C2C=C[C@H](C)[C@H](CC[C@@H]3C[C@@H](O)CC(=O)O3)[C@H]21` [Simvastatin] was tested, and the Total cholesterol value ([1]; Table 18, mean ± standard deviation, n=10) was 9.59 ± 1.50, the Triglyceride value ([1]; Table 19, mean ± standard deviation, n=10) was 2.62 ± 0.54 mmol/L and the “Low density lipoprotein cholesterol” value ([1]; Table 20, mean ± standard deviation, n=10) was 2.90 ± 0.67 mmol/L. The “High density lipoprotein cholesterol” value ([1]; Table 21, mean ± standard deviation, n=10) was 0.75 ± 0.20 mmol/L, the “serum high density lipoprotein cholesterol (HDL) contents, Mean” value [1, 3] was 0.75 mmol/L and the “serum low density lipoprotein cholesterol (LDL) contents, Mean” value [1, 3] was 2.90 mmol/L. The “serum total cholesterol (TC) contents, Mean” value [1, 3] was 9.59 mmol/L, the “serum triglyceride (TG) contents, Mean” value [1, 3] was 2.62 mmol/L and the “serum high density lipoprotein cholesterol (HDL) contents, individual rats” value [1, 4] was 1.11 mmol/L and 0.93 mmol/L and 0.58 mmol/L and 0.67 mmol/L and 0.37 mmol/L and 0.81 mmol/L and 0.77 mmol/L and 0.92 mmol/L and 0.66 mmol/L and 0.72 mmol/L. For the same molecule, the “serum low density lipoprotein cholesterol (LDL) contents, individual rats” value [1, 4] was 2.51 mmol/L and 2.84 mmol/L and 2.67 mmol/L and 3.38 mmol/L and 1.97 mmol/L and 2.37 mmol/L and 3.71 mmol/L and 4.12 mmol/L and 3.12 mmol/L and 2.36 mmol/L, the “serum triglyceride (TG) contents, individual rats” value [1, 4] was 1.95 mmol/L and 3.67 mmol/L and 2.38 mmol/L and 2.08 mmol/L and 2.27 mmol/L and 3.27 mmol/L and 2.67 mmol/L and 2.36 mmol/L and 2.68 mmol/L and 2.96 mmol/L and the “serum total cholesterol (TC) contents, individual rats” value ([1]; rats No. 1-10, hyperlipoidemia mode, drug 14 days, 0.046 mmol/kg (Simvastatin 10 mg/kg), 15th day after administration) was 7.61 mmol/L and 9.38 mmol/L and 8.81 mmol/L and 8.39 mmol/L and 12.67 mmol/L and 10.34 mmol/L and 9.37 mmol/L (2×) and 8.61 mmol/L and 11.34 mmol/L. For the same molecule, the Total cholesterol value ([2]; Table 6, mean ± standard deviation, n=10) was 13.88 ± 3.27, the Triglyceride value ([2]; Table 7, mean ± standard deviation, n=10) was 1.22 ± 0.1841 mmol/L and the “Low density lipoprotein cholesterol” value ([2]; Table 8, mean ± standard deviation, n=10) was 4.223 ± 0.9989 mmol/L. For the same molecule, the “High density lipoprotein cholesterol” value ([2]; Table 9, mean ± standard deviation, n=10) was 0.331 ± 0.0767 mmol/L, the “serum total cholesterol (TC) contents, Mean” value ([2]; group mean n=10, 0.046 mmol/kg (Simvastatin 10 mg/kg), 15th day after administration) was 13.88 mmol/L and the “serum high density lipoprotein cholesterol (HDL) contents, Mean” value [2, 3] was 0.33 mmol/L. For the same molecule, the “serum low density lipoprotein cholesterol (LDL) contents, Mean” value [2, 3] was 4.22 mmol/L, the “serum triglyceride (TG) contents, Mean” value [2, 3] was 1.22 mmol/L and the “serum high density lipoprotein cholesterol (HDL) contents, individual rats” value [2, 4] was 0.26 mmol/L and 0.29 mmol/L and 0.31 mmol/L (2×) and 0.47 mmol/L and 0.39 mmol/L and 0.24 mmol/L and 0.33 mmol/L and 0.43 mmol/L and 0.28 mmol/L. The “serum low density lipoprotein cholesterol (LDL) contents, individual rats” value [2, 4] was 5.81 mmol/L and 4.98 mmol/L and 5.32 mmol/L and 3.73 mmol/L and 5.14 mmol/L and 3.99 mmol/L and 3.33 mmol/L and 3.37 mmol/L and 3.63 mmol/L and 2.93 mmol/L, the “serum triglyceride (TG) contents, individual rats” value [2, 4] was 1.12 mmol/L and 1.53 mmol/L and 0.93 mmol/L and 1.36 mmol/L and 1.26 mmol/L and 1.00 mmol/L and 1.19 mmol/L and 1.23 mmol/L and 1.31 mmol/L and 1.28 mmol/L and the “serum total cholesterol (TC) contents, individual rats” value ([2]; rats No. 1-10, high lipid feed plus drug 14 days, 0.046 mmol/kg (Simvastatin 10 mg/kg), 15th day after administration) was 19.21 mmol/L and 14.11 mmol/L and 12.51 mmol/L and 11.11 mmol/L and 9.19 mmol/L and 11.57 mmol/L and 10.31 mmol/L and 15.62 mmol/L and 13.60 mmol/L and 18.06 mmol/L.
